# Experimental data from ChEMBL document CHEMBL1201862, “PubChem BioAssay data set” (2004).
# Activity calls are given as the source filed them.
# Legend:
# [1] = target: Tyrosine-protein phosphatase non-receptor type 5 (Homo sapiens, UniProt P54829); assay: STEP phosphatase inhibitors, confirmation, biochemical, fluorescence intensity, uHTS hits (AID 602372); assay type: functional; conditions: read-out: IC50_Mean
# [2] = target: T1, Tyrosine-protein phosphatase non-receptor type 22 (Homo sapiens, UniProt Q9Y2R2); assay: PTPN22 phosphatase inhibition, dose response, selectivity assay for STEP inhibitor project, biochemical (AID 624241); assay type: functional
# T1 sequence (Q9Y2R2 whole entry): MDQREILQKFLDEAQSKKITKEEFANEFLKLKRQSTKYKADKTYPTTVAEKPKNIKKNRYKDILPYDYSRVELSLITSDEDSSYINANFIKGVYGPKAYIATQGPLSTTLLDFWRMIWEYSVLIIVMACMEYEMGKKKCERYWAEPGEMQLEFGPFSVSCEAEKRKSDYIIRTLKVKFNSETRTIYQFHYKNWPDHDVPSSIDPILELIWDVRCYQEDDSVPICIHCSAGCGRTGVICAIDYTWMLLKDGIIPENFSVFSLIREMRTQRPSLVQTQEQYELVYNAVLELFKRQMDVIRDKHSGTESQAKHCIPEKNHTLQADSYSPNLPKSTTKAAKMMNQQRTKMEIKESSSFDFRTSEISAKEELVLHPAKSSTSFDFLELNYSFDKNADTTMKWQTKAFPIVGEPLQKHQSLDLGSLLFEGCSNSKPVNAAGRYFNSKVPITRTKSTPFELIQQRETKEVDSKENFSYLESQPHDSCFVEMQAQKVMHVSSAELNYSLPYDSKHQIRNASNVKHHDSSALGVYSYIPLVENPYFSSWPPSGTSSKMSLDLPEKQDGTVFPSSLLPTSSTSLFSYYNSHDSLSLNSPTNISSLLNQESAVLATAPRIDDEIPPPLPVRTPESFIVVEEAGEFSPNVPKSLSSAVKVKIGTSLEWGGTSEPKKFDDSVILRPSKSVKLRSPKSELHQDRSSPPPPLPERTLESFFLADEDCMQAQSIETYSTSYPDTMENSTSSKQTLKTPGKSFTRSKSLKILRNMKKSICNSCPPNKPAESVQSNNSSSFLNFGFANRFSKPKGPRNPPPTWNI
# [3] = target: T2, Small ubiquitin-related modifier 1 (Homo sapiens, UniProt P63165); assay: inhibitors of SUMO1 peptide binding, dose response, biochemical, fluorescence polarization, uHTS hits (AID 624382); assay type: functional; conditions: read-out: IC50_Mean
# [4] = target: T3, Carboxy-terminal domain RNA polymerase II polypeptide A small phosphatase 1 (Homo sapiens, UniProt Q9GZU7); assay: inhibitors of CTDSP1, concentration-response testing, biochemical assay, absorbance-based, actives from ultra-high-throughput screening (AID 540297); assay type: functional
# T3 sequence (Q9GZU7 whole entry): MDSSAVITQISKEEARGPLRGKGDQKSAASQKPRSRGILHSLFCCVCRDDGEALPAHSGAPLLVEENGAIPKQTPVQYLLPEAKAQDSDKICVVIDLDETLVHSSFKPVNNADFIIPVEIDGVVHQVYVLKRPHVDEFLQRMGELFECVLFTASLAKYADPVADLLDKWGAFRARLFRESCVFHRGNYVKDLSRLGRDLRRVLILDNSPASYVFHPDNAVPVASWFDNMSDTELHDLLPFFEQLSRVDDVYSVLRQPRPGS
# [5] = target: T2, Small ubiquitin-related modifier 1; assay: inhibitors of SUMO1 partner interactions, dose response, biochemical, FRET (AID 624383); assay type: functional; conditions: read-out: IC50_Mean
# [6] = target: Tyrosine-protein phosphatase non-receptor type 11 (Homo sapiens, UniProt Q06124); assay: SHP2 phosphatase inhibition, dose response, selectivity assay for STEP inhibitor project, biochemical (AID 602367); assay type: functional; conditions: read-out: IC50_Mean
# [7] = target: T4, Corticotropin-releasing factor receptor 2/Corticotropin-releasing factor-binding protein (Homo sapiens, UniProt P24387+Q13324); assay: activators of CRF receptor 2 with binding protein – uHTS hits, confirmation (AID 602473); assay type: functional; conditions: read-out: EC50_Mean
# T4 sequence (Q13324 whole entry): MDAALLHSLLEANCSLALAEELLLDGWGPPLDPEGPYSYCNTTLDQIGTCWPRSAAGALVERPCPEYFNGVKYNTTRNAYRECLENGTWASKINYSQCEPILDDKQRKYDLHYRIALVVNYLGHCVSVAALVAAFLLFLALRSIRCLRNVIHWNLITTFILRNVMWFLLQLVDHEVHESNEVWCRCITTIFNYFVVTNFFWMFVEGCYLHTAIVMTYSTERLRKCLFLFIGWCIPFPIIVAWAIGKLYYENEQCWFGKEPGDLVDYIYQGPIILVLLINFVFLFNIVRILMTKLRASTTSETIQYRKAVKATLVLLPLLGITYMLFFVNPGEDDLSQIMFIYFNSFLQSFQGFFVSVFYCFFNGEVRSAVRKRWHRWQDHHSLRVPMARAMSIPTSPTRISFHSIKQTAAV
# T4 sequence (P24387 whole entry): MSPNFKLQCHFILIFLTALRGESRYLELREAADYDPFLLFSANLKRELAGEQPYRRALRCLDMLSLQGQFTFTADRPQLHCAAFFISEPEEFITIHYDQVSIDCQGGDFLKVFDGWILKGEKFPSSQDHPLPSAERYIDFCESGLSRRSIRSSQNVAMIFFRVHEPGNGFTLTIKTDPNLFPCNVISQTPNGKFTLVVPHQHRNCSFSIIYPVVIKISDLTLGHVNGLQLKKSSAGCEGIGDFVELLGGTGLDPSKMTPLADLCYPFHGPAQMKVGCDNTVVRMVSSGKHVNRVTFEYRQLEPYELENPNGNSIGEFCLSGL
# [8] = target: T4, Corticotropin-releasing factor receptor 2/Corticotropin-releasing factor-binding protein; assay: Dose Response confirmation of uHTS hits for small molecule antagonists of the CRF-binding protein and CRF-R2 receptor complex.; assay type: functional; conditions: read-out: IC50_Mean
# [9] = target: Dual specificity protein phosphatase 3 (Homo sapiens, UniProt P51452); assay: VHR phosphatase inhibition, dose response, selectivity assay for STEP inhibitor project, biochemical (AID 602374); assay type: functional; conditions: read-out: IC50_Mean
# [10] = A Cell-Based Confirmatory Screen for Compounds that Inhibit VEEV, TC-83 (7).; assay type: functional
# [11] = HEp-2 cell cytotoxicity, dose response, cytotoxicity control for RSV inhibitor project, HTS (AID 2410); assay type: functional; conditions: human respiratory syncytial virus
# [12] = HepG2 cell cytotoxicity, dose response, cytotoxicity control, ATP luminescence, cherry-pick, set 6 (AID 1053125); assay type: functional, cell-based
# cells [13] = conditions: HEK293;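 further: cells exposed to compound for 48 hours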
# cells [14] = conditions: A549
# Albumin = Albumin (Bos taurus, UniProt P02769); assay: Counterscreen for inhibitors of T-cell receptor (TCR)-CD3 interaction: Fluorescence-based biochemical high throughput dose response assay to identify inhibitors of T-cell receptor (TCR)-CD3 interaction using a TAMRA-labeled BSA probe.; assay type: functional
# [15] = target: T5, Calpain-2 catalytic subunit (Sus scrofa, UniProt P43367); assay: pig calpain II inhibitor potency, dose response, biochemical, fluorogenic peptide substrate (AID 1420); assay type: functional
# T5 sequence (P43367 whole entry): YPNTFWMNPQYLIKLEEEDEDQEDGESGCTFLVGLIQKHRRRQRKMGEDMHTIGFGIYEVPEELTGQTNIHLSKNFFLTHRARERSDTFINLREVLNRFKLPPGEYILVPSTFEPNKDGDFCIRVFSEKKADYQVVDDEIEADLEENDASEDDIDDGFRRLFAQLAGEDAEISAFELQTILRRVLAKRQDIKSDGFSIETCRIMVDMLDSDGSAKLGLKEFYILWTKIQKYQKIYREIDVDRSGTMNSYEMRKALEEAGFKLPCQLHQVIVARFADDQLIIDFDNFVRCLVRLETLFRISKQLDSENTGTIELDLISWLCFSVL
# Kallikrein-7 = Kallikrein-7 (Homo sapiens, UniProt P49862); assay: Fluorescence Intensity-based biochemical primary high throughput dose response assay to identify activators of kallikrein-7 (K7) zymogen.
# [16] = EDANS-DABCYL fluorescence interference, concentration series, dose response, artefact control for kallikrein-7 zymogen activator project, biochemical, fluorescence intensity, triplicate (AID 720493)
# [17] = Luminescence Cell-Based Dose Retest to Confirm Inhibitors of Cancer Stem Cells. [Related pubchem assays (depositor defined):AID2717, AID2721]; assay type: functional; conditions: Homo sapiens
# [18] = target: T6, Beta-2 adrenergic receptor (Homo sapiens, UniProt P07550); assay: Dose response for HTS for Beta-2AR agonists via FAP method from Powderset3.; assay type: functional
# [19] = target: T6, Beta-2 adrenergic receptor; assay: beta2AR agonists driving receptor internalization, dose response, cell-based, FAP fluorogen, flow cytometry, cherry pick 1 (AID 588763); assay type: functional
# [20] = IRAP inhibitors, dose response, selectivity assay for ERAP1 modulator project, biochemical, Leu-AMC fluorescence, cherry-picked samples, set 2 (AID 743340)
# [21] = Counterscreen for inhibitors of Trypanosoma brucei methionyl tRNA synthetase (MetRS): Luminescence-based cell-based high throughput dose response assay to identify compounds that are cytotoxic to Jurkat human T lymphocyte cells.; assay type: functional
# [22] = target: T7, Methionyl-tRNA synthetase, putative (Trypanosoma brucei brucei, UniProt Q38C91); assay type: functional, Trypanosoma brucei brucei strain 927/4 GUTat10.1
# [23] = target: T7, Methionyl-tRNA synthetase, putative; assay type: functional, Trypanosoma brucei brucei strain 927/4 GUTat10.1; remark: listed apart in the source
# [24] = HepG2 cell cytotoxicity, dose response, cytotoxicity control, luminescence, dry powder, set 5 (AID 743185); assay type: functional, cell-based
# [25] = T. cruzi intracellular amastigote growth inhibition, dose response, imaging, CA-I/72 strain, bovine embryo skeletal muscle, dry powder (AID 651885); assay type: functional, cell-based
# [26] = YAP1 pathway inhibition via CTGF transcript levels, dose response, cell-based, DLD1 colon cancer, RT-qPCR, cherry-pick (AID 1053122); assay type: functional; conditions: Cancer cell lines
# [27] = HEK293 Cytotoxicity Assay Measured in Cell-Based System Using Plate Reader - 7071-01_Inhibitor_Dose_CherryPick_Activity_Set2.; assay type: functional
# HEK293 = assay: HEK293T cell cytotoxicity, dose response, cytotoxicity control, ATP luminescence, cherry-pick samples (AID 687005); assay type: functional, cell-based; conditions: Homo sapiens;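 further: cells exposed to compound for 48 hours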
# HeLa = assay: HeLa cell cytotoxicity, dose response, cytotoxicity control, ATP luminescence, cherry-pick samples (AID 687004); assay type: functional, cell-based; conditions: Homo sapiens
# [28] = HEK293 cell cytotoxicity, dose response, cytotoxicity control, HEK293T, ATP luminescence, dry powder (AID 652119); assay type: functional, cell-based
# [29] = target: Protein disulfide-isomerase (Homo sapiens, UniProt P07237); assay: PDI inhibitors, insulin turbidity readout, confirmation, biochemical, dry powder samples, set 2 (AID 652146)
# [30] = target: Arf-GAP with SH3 domain, ANK repeat and PH domain-containing protein 1 (Homo sapiens, UniProt Q9ULH1); assay type: functional;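 further: biochemical fluorescence polarization dose–response screen measuring inhibition of ASAP1; ASAP1 GAP domain stimulating GTP hydrolysis by truncated human ARF1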
# [31] = target: ADP-ribosylation factor GTPase-activating protein 1 (Rattus norvegicus, UniProt Q62848); assay: Fluorescence polarization-based biochemical high throughput dose response screening assay to identify inhibitors of ADP-ribosylation factor GTPase activating protein 1 (ARFGAP1).; assay type: functional
# [32] = target: 5-hydroxytryptamine receptor 2A (Mus musculus, UniProt P35363); assay type: functional, cell-based;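 further: CHO-K1 cells with tagged receptor and beta-arrestin; agonist potency measured as compound-induced activation of the receptor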
# Mu-type opioid receptor = Mu-type opioid receptor (Homo sapiens, UniProt P35372); assay type: functional, cell-based;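 further: U2OS cells with beta-arrestin recruitment to OPRM1 by beta-gal complementation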
# Chain of Mu-type opioid receptor (P35372 whole entry): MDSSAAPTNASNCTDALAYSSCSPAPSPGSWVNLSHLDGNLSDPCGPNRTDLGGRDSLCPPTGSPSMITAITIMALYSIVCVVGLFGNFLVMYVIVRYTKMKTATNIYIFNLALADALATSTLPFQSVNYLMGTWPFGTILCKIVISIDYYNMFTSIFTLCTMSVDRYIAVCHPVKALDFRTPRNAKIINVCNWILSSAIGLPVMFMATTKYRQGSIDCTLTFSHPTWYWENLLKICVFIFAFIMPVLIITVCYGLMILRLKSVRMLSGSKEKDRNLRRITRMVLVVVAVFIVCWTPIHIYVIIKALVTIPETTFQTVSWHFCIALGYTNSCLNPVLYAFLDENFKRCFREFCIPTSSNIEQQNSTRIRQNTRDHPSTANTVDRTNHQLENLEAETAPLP
# T7 sequence (Q38C91 whole entry): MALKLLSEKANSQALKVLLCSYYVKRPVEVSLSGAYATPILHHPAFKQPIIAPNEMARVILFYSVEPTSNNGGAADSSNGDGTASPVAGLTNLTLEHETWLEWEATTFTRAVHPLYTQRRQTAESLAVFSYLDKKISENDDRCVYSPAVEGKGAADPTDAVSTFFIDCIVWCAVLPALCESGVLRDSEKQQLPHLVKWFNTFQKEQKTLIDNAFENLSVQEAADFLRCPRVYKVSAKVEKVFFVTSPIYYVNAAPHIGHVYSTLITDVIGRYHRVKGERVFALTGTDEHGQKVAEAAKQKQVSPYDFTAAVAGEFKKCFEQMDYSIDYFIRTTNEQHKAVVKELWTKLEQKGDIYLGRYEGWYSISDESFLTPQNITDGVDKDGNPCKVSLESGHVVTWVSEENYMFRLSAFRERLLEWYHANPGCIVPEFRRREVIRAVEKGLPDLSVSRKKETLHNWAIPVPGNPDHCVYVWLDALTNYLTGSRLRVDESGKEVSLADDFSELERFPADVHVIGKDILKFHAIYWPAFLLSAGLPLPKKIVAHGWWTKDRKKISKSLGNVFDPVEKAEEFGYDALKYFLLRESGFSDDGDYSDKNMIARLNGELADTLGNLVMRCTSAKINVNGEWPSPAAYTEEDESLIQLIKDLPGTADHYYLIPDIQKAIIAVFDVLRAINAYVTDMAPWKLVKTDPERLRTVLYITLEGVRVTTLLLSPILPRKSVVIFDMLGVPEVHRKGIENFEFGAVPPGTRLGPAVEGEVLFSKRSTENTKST
# T2 sequence (P63165 whole entry, the tested form may be a part): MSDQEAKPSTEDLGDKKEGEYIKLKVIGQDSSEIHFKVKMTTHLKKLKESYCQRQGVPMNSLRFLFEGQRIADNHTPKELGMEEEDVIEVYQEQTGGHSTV
# T6 sequence (P07550 whole entry): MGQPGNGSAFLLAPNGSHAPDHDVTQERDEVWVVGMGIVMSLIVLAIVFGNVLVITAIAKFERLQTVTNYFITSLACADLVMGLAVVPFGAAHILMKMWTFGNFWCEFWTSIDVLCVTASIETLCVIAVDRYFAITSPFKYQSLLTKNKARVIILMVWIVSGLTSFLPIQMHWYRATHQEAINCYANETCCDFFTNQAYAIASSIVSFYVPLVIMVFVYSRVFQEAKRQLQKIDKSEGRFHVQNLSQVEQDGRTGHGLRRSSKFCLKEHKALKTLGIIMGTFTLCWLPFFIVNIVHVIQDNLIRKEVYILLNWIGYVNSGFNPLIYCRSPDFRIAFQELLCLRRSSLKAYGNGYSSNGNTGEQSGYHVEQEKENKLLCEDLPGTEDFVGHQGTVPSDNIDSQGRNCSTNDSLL
# Chain of 5-hydroxytryptamine receptor 2A (P35363 whole entry): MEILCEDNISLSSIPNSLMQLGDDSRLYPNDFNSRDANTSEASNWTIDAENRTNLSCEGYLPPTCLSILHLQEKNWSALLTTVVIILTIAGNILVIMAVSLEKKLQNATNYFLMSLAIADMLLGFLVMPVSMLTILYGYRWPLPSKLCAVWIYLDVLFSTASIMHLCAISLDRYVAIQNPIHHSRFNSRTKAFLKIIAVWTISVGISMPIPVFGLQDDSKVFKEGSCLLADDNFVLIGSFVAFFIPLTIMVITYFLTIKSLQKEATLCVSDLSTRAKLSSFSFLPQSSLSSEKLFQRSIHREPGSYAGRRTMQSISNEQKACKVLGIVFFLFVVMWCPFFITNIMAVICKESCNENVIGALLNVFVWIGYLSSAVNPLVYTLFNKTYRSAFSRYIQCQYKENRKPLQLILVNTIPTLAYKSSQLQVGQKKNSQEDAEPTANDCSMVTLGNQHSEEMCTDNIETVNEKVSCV
# Chain of Tyrosine-protein phosphatase non-receptor type 11 (Q06124 whole entry): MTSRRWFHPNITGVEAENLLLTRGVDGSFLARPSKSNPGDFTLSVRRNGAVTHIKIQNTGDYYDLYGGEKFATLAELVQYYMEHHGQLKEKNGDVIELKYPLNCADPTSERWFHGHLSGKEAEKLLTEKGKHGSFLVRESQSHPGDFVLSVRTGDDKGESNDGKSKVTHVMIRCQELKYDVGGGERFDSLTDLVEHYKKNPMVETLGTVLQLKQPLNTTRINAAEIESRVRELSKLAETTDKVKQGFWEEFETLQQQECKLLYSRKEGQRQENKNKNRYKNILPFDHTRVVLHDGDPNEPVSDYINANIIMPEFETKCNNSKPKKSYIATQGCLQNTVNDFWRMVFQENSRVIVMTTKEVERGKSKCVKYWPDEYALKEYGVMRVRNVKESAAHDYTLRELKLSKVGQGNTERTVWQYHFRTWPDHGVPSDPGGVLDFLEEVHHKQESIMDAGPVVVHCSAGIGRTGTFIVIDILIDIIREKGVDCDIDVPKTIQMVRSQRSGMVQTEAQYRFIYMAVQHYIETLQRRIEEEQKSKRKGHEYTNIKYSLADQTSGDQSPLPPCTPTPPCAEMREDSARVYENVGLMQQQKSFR
# Chain of Dual specificity protein phosphatase 3 (P51452 whole entry): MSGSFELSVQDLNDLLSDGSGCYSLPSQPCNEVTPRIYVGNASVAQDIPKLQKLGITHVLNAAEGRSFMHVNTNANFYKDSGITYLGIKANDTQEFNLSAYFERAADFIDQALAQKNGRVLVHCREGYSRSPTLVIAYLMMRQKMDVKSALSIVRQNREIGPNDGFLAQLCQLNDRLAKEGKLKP
# Chain of Tyrosine-protein phosphatase non-receptor type 5 (P54829 whole entry): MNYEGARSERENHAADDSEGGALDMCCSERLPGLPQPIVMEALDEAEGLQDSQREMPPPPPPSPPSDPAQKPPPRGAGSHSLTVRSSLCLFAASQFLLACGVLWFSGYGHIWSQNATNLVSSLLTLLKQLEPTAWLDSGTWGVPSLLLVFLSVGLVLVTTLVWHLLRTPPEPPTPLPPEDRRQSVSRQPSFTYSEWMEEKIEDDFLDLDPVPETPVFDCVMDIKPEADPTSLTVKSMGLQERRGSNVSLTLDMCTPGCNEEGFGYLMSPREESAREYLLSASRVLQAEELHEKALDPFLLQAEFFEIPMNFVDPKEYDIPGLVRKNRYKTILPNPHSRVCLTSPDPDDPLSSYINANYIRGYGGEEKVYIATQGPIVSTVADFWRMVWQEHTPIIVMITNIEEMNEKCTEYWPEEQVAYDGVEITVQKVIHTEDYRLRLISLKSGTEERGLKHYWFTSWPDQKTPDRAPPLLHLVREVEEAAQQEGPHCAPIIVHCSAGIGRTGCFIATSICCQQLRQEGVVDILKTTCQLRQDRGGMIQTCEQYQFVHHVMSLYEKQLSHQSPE
# Chain of Albumin (P02769 whole entry): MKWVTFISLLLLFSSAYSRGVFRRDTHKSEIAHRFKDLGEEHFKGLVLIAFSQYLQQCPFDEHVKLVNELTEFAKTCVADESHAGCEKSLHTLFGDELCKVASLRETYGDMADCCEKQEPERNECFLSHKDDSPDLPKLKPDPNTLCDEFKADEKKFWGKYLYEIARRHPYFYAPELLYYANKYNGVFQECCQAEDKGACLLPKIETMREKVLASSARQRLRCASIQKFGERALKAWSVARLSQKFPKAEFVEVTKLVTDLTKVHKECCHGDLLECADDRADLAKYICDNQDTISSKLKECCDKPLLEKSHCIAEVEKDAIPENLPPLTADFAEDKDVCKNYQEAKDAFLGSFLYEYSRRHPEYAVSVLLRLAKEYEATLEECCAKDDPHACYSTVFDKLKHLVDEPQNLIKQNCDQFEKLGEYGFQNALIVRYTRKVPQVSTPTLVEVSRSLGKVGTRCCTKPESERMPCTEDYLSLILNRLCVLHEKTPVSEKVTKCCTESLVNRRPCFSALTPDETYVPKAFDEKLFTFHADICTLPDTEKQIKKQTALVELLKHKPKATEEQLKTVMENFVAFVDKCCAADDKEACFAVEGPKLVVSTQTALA
# Chain of ADP-ribosylation factor GTPase-activating protein 1 (Q62848 whole entry): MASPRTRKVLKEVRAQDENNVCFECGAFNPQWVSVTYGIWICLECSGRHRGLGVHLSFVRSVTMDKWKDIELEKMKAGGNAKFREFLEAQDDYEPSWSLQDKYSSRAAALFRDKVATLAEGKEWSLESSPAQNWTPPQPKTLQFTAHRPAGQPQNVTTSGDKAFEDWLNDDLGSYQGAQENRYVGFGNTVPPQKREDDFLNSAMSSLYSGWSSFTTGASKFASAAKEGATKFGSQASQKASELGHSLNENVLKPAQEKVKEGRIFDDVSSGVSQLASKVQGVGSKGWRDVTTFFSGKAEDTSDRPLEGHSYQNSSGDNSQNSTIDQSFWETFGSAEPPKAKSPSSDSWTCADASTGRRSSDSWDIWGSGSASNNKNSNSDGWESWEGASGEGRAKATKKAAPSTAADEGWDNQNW
# Chain of Kallikrein-7 (P49862 whole entry): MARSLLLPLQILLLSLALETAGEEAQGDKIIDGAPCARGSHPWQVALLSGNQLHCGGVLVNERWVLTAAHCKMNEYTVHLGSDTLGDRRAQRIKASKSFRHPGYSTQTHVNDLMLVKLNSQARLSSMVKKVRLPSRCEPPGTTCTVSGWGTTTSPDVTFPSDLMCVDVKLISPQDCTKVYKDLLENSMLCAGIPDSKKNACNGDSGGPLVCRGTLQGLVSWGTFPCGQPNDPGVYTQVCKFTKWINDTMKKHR
structure (smiles),measurement,setting,value
CN(C)c1ccc(C(=O)OCC(=O)Nc2ccc(S(N)(=O)=O)cc2)cc1,IC50,[1],7.3 µM (active)
same,IC50,[2],67.7 µM (inactive)
same,IC50,[3],> 66.6 µM (inactive)
same,IC50,[4],8.63 µM (active)
same,IC50,[5],12.8 µM (active)
same,IC50,[6],4.13 µM (active)
same,EC50,[7],> 53 µM (inactive)
same,IC50,[8],> 47.1 µM (inactive)
same,IC50,[9],6.56 µM (active)
O=c1c2cc(F)c(F)cc2nc(CN2CCNCC2)n1-c1ccccc1,IC50,[10],22.4 µM (active)
CCN1CCc2c(sc(NC(=O)Nc3ccc(Cl)c(Cl)c3)c2C(N)=O)C1,CC50,[11],10.4 µM (active)
same,AC50,[12],15.4 µM (active)
same,AC50,cells [13],15.2 µM (active)
same,AC50,cells [14],15.3 µM (active)
CN=C(S)NNC(=O)c1cccn(Cc2ccc(Cl)c(Cl)c2)c1=O,IC50,Albumin,> 94 µM (inactive)
COc1ccc2c(c1)C(=O)CC(O)(C(F)F)O2 (configuration not stated),IC50,[15],8.34 µM (not active)
same,EC50,Kallikrein-7,16.5 µM (inactive)
same,EC50,[16],> 7.73 µM (active)
Cc1ncc(CN2CCCC(C(=O)Nc3ccc(-c4cccc(F)c4)cc3)C2)s1 (configuration not stated),AC50,[17],6.84 µM (active)
same,EC50,[18],0.731 µM (active)
same,EC50,[19],3.37 µM (active)
C[C@H]1CN([C@@H](C)CO)C(=O)c2cccc(NC(=O)Nc3ccc(C(F)(F)F)cc3)c2O[C@@H]1CN(C)CC1CC1,AC50,[20],16 µM (active)
Cc1ccc2[nH]c3c(NCCCN4CCCC4=O)ncnc3c2c1,IC50,[21],17.9 µM (inactive)
same,IC50,[22],23.3 µM (inactive)
same,IC50,[23],27.9 µM (inactive)
O=C(N/N=C/c1c[nH]c2ccccc12)c1cccc(O)c1,AC50,[24],> 52 µM (inactive)
C[C@@H]1CN([C@@H](C)CO)C(=O)c2cccc(NC(=O)c3ccncc3)c2O[C@H]1CN(C)Cc1ccc(C(=O)O)cc1,IC50,[25],14.1 µM (inactive)
O=C(c1cccc(F)c1)N1CCCCN2[C@H](CO)[C@H](c3ccc(C#CC4(O)CCCC4)cc3)[C@@H]2C1,AC50,[26],2.86 µM (active)
C[C@@H](NC(=O)C[C@@H]1CC[C@@H]2[C@H](COC[C@H](O)CN2Cc2cc(F)ccc2F)O1)c1ccccc1,AC50,[27],5.05 µM (active)
same,AC50,HEK293,5.05 µM (active)
same,AC50,HeLa,> 52 µM (inactive)
C=CCOc1ccc(CN2CCC(CCOc3ccccc3)(C(=O)NCC)CC2)cc1Cl,AC50,[28],> 52 µM (inactive)
same,AC50,[29],> 30 µM (inactive)
CC1=CC2=NC(=O)/C(=C\c3ccc(-c4cccc(Cl)c4)o3)C(=N)N2O1,IC50,[30],13.3 µM (inactive)
same,IC50,[31],2.03 µM (active)
CC(C)(C)C1CCC(OCC(O)CN2CCN(c3ccccn3)CC2)CC1 (configuration not stated),EC50,[32],0.548 µM (active)
same,EC50,Mu-type opioid receptor,92.5 µM (inactive)
